Source: US7799819B2, “7-Amido-isoindolyl compounds and their pharmaceutical uses” (Celgene Corporation, priority 2003, dated 2010)
Structures can show the parent of a compound that is named as a salt.

Row | Compound | melting point [°C]
1 | CCOc1cc([C@@H](CCN)N2Cc3cccc(NC(=O)C4CC4)c3C2=O)ccc1OC (as salt: salt) [Example 5, (1R)-Cyclopropanecarboxylic acid {2-[3-amino-1-(3-ethoxy-4-methoxy-phenyl)-propyl]-3-oxo-2,3-dihydro-1H-isoindol-4-yl}-amide] | 169 to 171
2 | CCOc1cc([C@@H](CCN(C)C)N2Cc3cccc(NC(=O)C4CC4)c3C2=O)ccc1OC.Cl | 119 to 121
3 | CCOc1cc([C@@H](CC(=O)N(C)C)N2Cc3c(Cl)ccc(NC(=O)C4CC4)c3C2=O)ccc1OC [Example 15, (1R)-Cyclopropanecarboxylic acid {7-chloro-2-[2-dimethylcarbamoyl-1-(3-ethoxy-4-methoxy-phenyl)-ethyl]-3-oxo-2,3-dihydro-1H-isoindol-4-yl}-amide] | 163 to 165
4 | CCOc1cc([C@@H](CC(=O)NOC(C)=O)N2Cc3cccc(NC(=O)C4CC4)c3C2=O)ccc1OC [Example 10, (1R)-Cyclopropanecarboxylic acid {2-[2-acetoxycarbamoyl-1-(3-ethoxy-4-methoxy-phenyl)-ethyl]-3-oxo-2,3-dihydro-1H-isoindol-4-yl}-amide] | 140 to 142
5 | CCOc1cc([C@@H](CC(=O)NO)N2Cc3cccc(NC(=O)C4CC4)c3C2=O)ccc1OC [Example 9, (1R)-Cyclopropanecarboxylic acid {2-[1-(3-ethoxy-4-methoxy-phenyl)-2-hydroxycarbamoyl-ethyl]-3-oxo-2,3-dihydro-1H-isoindol-4-yl}-amide] | 160 to 162
6 | CCOc1cc([C@@H](CC(=O)O)N2Cc3c(Cl)ccc(NC(=O)C4CC4)c3C2=O)ccc1OC [Example 12, (3R)-3-[4-Chloro-7-(cyclopropanecarbonyl-amino)-1-oxo-1,3-dihydro-isoindol-2-yl]-3-(3-ethoxy-4-methoxy-phenyl)-propionic acid] | 118 to 120
7 | CCOc1cc([C@@H](CS(C)(=O)=O)N2Cc3c(Cl)ccc(NC(=O)N(C)C)c3C2=O)ccc1OC [Example 29, (1S)-3-{7-Chloro-2-[1-(3-ethoxy-4-methoxy-phenyl)-2-methanesulfonyl-ethyl]-3-oxo-2,3-dihydro-1H-isoindol-4-yl}-1,1-dimethyl-urea] | 205 to 207
8 | CCOc1cc([C@@H](CC(=O)NOC(=O)C(C)(C)C)N2Cc3cccc(NC(=O)C4CC4)c3C2=O)ccc1OC [Example 26, (1R)-Cyclopropanecarboxylic acid {2-[2-(2,2-dimethyl-propionyloxycarbamoyl)-1-(3-ethoxy-4-methoxy-phenyl)-ethyl]-3-oxo-2,3-dihydro-1H-isoindol-4-yl}-amide] | 146 to 148
9 | CCOc1cc([C@@H](CCNC(N)=O)N2Cc3cccc(NC(=O)C4CC4)c3C2=O)ccc1OC [Example 6, (1R)-Cyclopropanecarboxylic acid {2-[1-(3-ethoxy-4-methoxy-phenyl)-3-ureido-propyl]-3-oxo-2,3-dihydro-1H-isoindol-4-yl}-amide] | 162 to 164
10 | CCOc1cc(C(CC#N)N2Cc3c(Cl)ccc(NC(=O)C4CC4)c3C2=O)ccc1OC (stereo not drawn) [Example 21, Cyclopropanecarboxylic acid {7-chloro-2-[2-cyano-1-(3-ethoxy-4-methoxy-phenyl)-ethyl]-3-oxo-2,3-dihydro-1H-isoindol-4-yl}-amide] | 200 to 202
11 | CCOc1cc([C@@H](CC(C)(C)O)N2Cc3cccc(NC(=O)C4CC4)c3C2=O)ccc1OC [Example 23, (1R)-Cyclopropanecarboxylic acid {2-[1-(3-ethoxy-4-methoxy-phenyl)-3-hydroxy-3-methyl-butyl]-3-oxo-2,3-dihydro-1H-isoindol-4-yl}-amide] | 90 to 92
12 | CCOc1cc([C@@H](CC(N)=O)N2Cc3c(Cl)ccc(NC(=O)C4CC4)c3C2=O)ccc1OC [Example 14, (1R)-Cyclopropanecarboxylic acid {2-[2-carbamoyl-1-(3-ethoxy-4-methoxy-phenyl)-ethyl]-7-chloro-3-oxo-2,3-dihydro-1H-isoindol-4-yl}-amide] | 201 to 203
13 | CCOc1cc([C@@H](CS(C)(=O)=O)N2Cc3c(Cl)ccc(NC(=O)C4CC4)c3C2=O)ccc1OC [Example 18, (1S)-Cyclopropanecarboxylic acid {7-chloro-2-[1-(3-ethoxy-4-methoxy-phenyl)-2-methanesulfonyl-ethyl]-3-oxo-2,3-dihydro-1H-isoindol-4-yl}-amide] | 197 to 199
14 | CCOc1cc([C@@H](CS(C)(=O)=O)N2Cc3c(Br)ccc(NC(=O)C4CC4)c3C2=O)ccc1OC [Example 19, (1S)-Cyclopropanecarboxylic acid {7-bromo-2-[1-(3-ethoxy-4-methoxy-phenyl)-2-methanesulfonyl-ethyl]-3-oxo-2,3-dihydro-1H-isoindol-4-yl}-amide] | 219 to 221
15 | CCOc1cc([C@@H](CC(=O)OC)N2Cc3c(Cl)ccc(NC(=O)C4CC4)c3C2=O)ccc1OC [Example 13, (3R)-3-[4-Chloro-7-(cyclopropanecarbonyl-amino)-1-oxo-1,3-dihydro-isoindol-2-yl]-3-(3-ethoxy-4-methoxy-phenyl)-propionic acid methyl ester] | 158 to 160
16 | CCOc1cc(C(CCN(OC(=O)OC(C)(C)C)C(=O)OC(C)(C)C)N2Cc3cccc(NC(=O)C4CC4)c3C2=O)ccc1OC [Example 2, (3R)-(tert-Butoxy)-N-{3-[7-(cyclopropylcarbonylamino)-1-oxoisoindolin-2-yl]-3-(3-ethoxy-4-methoxyphenyl)propyl}carbonylamino(tert-butoxy)formate] | 153 to 155
17 | CCOc1cc([C@@H](CCNS(C)(=O)=O)N2Cc3cccc(NC(=O)C4CC4)c3C2=O)ccc1OC [Example 4, (1R)-Cyclopropanecarboxylic acid {2-[1-(3-ethoxy-4-methoxy-phenyl)-3-methanesulfonylamino-propyl]-3-oxo-2,3-dihydro-1H-isoindol-4-yl}-amide] | 93 to 95
18 | CCOc1cc([C@@H](CS(C)(=O)=O)N2Cc3c(Cl)ccc(NC(=O)CN(C)C)c3C2=O)ccc1OC.Cl | 198 to 200
19 | CCOc1cc([C@@H](CCS(C)(=O)=O)N2Cc3cccc(NC(=O)C4CC4)c3C2=O)ccc1OC [Example 8, (1R)-Cyclopropanecarboxylic acid {2-[1-(3-ethoxy-4-methoxy-phenyl)-3-methanesulfonyl-propyl]-3-oxo-2,3-dihydro-1H-isoindol-4-yl}-amide] | 148 to 150
20 | CCOc1cc(C(Cc2c(Cl)cncc2Cl)N2Cc3cccc(NC(=O)C4CC4)c3C2=O)ccc1OC (stereo not drawn) [Example 22, Cyclopropanecarboxylic acid {2-[2-(3,5-dichloro-pyridin-4-yl)-1-(3-ethoxy-4-methoxy-phenyl)-ethyl]-3-oxo-2,3-dihydro-1H-isoindol-4-yl}-amide] | 159 to 161
21 | CCOc1cc(C(CC)N2Cc3cccc(NC(=O)C4CC4)c3C2=O)ccc1OC (stereo not drawn) [Example 20, Cyclopropanecarboxylic acid {2-[1-(3-ethoxy-4-methoxy-phenyl)-propyl]-3-oxo-2,3-dihydro-1H-isoindol-4-yl}-amide] | 107 to 109
